Reference: patent US20090214600A1, “METHODS AND COMPOSITIONS FOR GASTRIC RESISTANT ORAL FORMULATIONS FOR INTESTINAL DELIVERY” (priority 2008, published 2009)
Values joined by “and” are separate entries in the source; they are usually repeats but may differ in a detail not shown here. Equal entries are not always repeated. Where two headings read alike, the source gives them in different places.

Key:
[1] = Rabbit plasma Ceftriaxone concentration after oral administration of oral formulations (HPLC); format: in vivo; settings: oral formulation, 40-80 mg Ceftriaxone, one line per animal (001-005)
Method: Oral Ceftriaxone formulations were administered to rabbit test subjects through a formulation delivery tube to permit oral administration, illustrative of the same absorption processes as the human stomach and intestines. Rabbits were dosed at a Ceftriaxone load of 40-80 mg depending upon body weight. Rabbits were dosed with all five oral Ceftriaxone formulations and absorption data collected by HPLC analysis of plasma Ceftriaxone concentrations from the heparinized rabbit plasma specimen. Blood draws were collected at pre-determined intervals of time, spun down to separate serum, and serum was removed and frozen prior to delivery to Clinical Pathology Laboratories in Oklahoma City, Okla.

[2] = Rabbit plasma Ceftriaxone concentration after IV administration (control); format: in vivo
[3] = single dose IV, 1.0 g, cited from earlier work
[4] = single dose IM, 1.0 g, cited from earlier work
[5] = in vivo; cited from earlier work
[6] = cited from earlier work

concentration at 0.5 h ([2]; animal 006, 0.5 Hours, read-out: Plasma Concentration of Ceftriaxone Over Time After IV Administration): 198 µg/mL | concentration at 1 h ([2]; animal 006, 1.0 Hours, read-out: Plasma Concentration of Ceftriaxone Over Time After IV Administration): 136 µg/mL | concentration at 2 h ([2]; animal 006, 2.0 Hours, read-out: Plasma Concentration of Ceftriaxone Over Time After IV Administration): 90.8 µg/mL | concentration at 4 h ([2]; animal 006, 4.0 Hours, read-out: Plasma Concentration of Ceftriaxone Over Time After IV Administration): 36.4 µg/mL | concentration at 6 h ([2]; animal 006, 6.0 Hours, read-out: Plasma Concentration of Ceftriaxone Over Time After IV Administration): 27.3 µg/mL
Compound: CO/N=C(\C(=O)N[C@@H]1C(=O)N2C(C(=O)O)=C(CSc3nc(=O)c(=O)[nH]n3C)CS[C@H]12)c1csc(N)n1 [Ceftriaxone, Ceftriaxone sodium]
Study Sample Concentration ([1]; 0.00 Hours): BLQ (BLQ = Below Limit of Quantitation (<1.00 mcg/mL)) | Study Sample Concentration ([1]; 0.5 Hours): 40.194 µg/mL and 31.84 µg/mL and 110.88 µg/mL and 143.15 µg/mL and 35.69 µg/mL | Study Sample Concentration ([1]; 1.0 Hours): 27.41 µg/mL and 21.71 µg/mL and 75.60 µg/mL and 97.60 µg/mL and 24.33 µg/mL | Study Sample Concentration ([1]; 2.0 Hours): 18.27 µg/mL and 14.47 µg/mL and 50.40 µg/mL and 65.07 µg/mL and 16.22 µg/mL | Study Sample Concentration ([1]; 4.0 Hours): 7.31 µg/mL and 5.79 µg/mL and 20.16 µg/mL and 26.03 µg/mL and 6.44 µg/mL | Study Sample Concentration ([1]; 6.0 Hours): 5.48 µg/mL and 4.34 µg/mL and 15.12 µg/mL and 19.52 µg/mL and 4.87 µg/mL | Plasma Concentration of Ceftriaxone Over Time After IV Administration ([2]; animal 006, 0.00 Hours): BLQ (BLQ = Below Limit of Quantitation (<1.00 mcg/mL)) | Plasma Concentrations ([3]; 0.5 hr): 151 µg/mL | Plasma Concentrations ([3]; 1 hr): 111 µg/mL | Plasma Concentrations ([3]; 2 hr): 88 µg/mL | Plasma Concentrations ([3]; 4 hr): 67 µg/mL | Plasma Concentrations ([3]; 6 hr): 53 µg/mL | Plasma Concentrations ([3]; 8 hr): 43 µg/mL | Plasma Concentrations ([3]; 12 hr): 28 µg/mL | Plasma Concentrations ([3]; 16 hr): 18 µg/mL | Plasma Concentrations ([3]; 24 hr): 9 µg/mL | Plasma Concentrations ([4]; 0.5 hr): 40 µg/mL | Plasma Concentrations ([4]; 1 hr): 68 µg/mL | Plasma Concentrations ([4]; 2 hr): 76 µg/mL | Plasma Concentrations ([4]; 4 hr): 68 µg/mL | Plasma Concentrations ([4]; 6 hr): 56 µg/mL | Plasma Concentrations ([4]; 8 hr): 44 µg/mL | Plasma Concentrations ([4]; 12 hr): 29 µg/mL | dose excreted as unchanged drug in the urine [5]: 33-67% | solubility in ethanol ([6]; ethanol): slightly soluble | solubility in methanol ([6]; methanol): sparingly | solubility in water ([6]; water): readily soluble
